Source: paper PMC12156367, “Synthesis and Biological Evaluation of Seco-Coumarin/Furoxan Hybrids as Potent Anti-Tumor Agents to Overcome Multidrug Resistance via Multiple Mechanisms” (Molecules, 2025)

Assays:
[1] = system: MCF-7/ADR; assay: Lysosomal and mitochondrial NO levels (Lyso-NO, Mito-NO probes), MCF-7/ADR; type: cell-based, human
Method: Lysosomal NO probes (Lyso-NO) and mitochondrial NO probes (Mito-NO), which are specifically used for detecting the nitric oxide levels in lysosomes and mitochondria, respectively, were provided by Professor Weili Zhao (Fudan University, China). Cells (MCF-7 or MCF-7/ADR) were plated in 6-well plates (2 × 10^5 cells/well). After overnight incubation, indicated concentrations of 9e were added to the cells for 4 h. Cells were first treated with 10 μM Lyso-NO or Mito-NO (15 min, 37 °C), then counterstained with Hoechst 33,342 nuclear dye (Beyotime, China; 10 min, 37 °C). Finally, the fluorescence intensity was measured under a fluorescence microscope (Olympus, Tokyo, Japan).

[2] = system: P-gp in MCF-7/ADR; assay: Rh-123 accumulation assay (flow cytometry); type: cell-based, human; details: 9e 20 nM, vs DMSO
Method: Harvest the MCF-7/ADR cells and seed them into a 96-well plate (2 × 10^5 cells/well). Following overnight culture, cells were treated with 9e (10 and 20 nM) or DMSO (vehicle control) for 60 min. After aspiration of the medium, cells were washed thrice with PBS and subsequently incubated with Rh123 solution (1 μg/mL; Sigma-Aldrich) for 60 min. Subsequently, wash three times with PBS, then digest and centrifuge them (1000× g, 5 min). Resuspend the cells with 1 mL of PBS and centrifuge again (1000× g, 5 min). Finally, after resuspending the cells with 200 μL of PBS, the fluorescence of Rh123 was analyzed by flow cytometry (Beckman, Brea, CA, USA).

[3] = system: LC3 in MCF-7/ADR; assay: LC3 immunofluorescence; type: cell-based, human; details: 9e 10 nM, 24 hours
Method: MCF-7/ADR (1 × 10^5 cells/dish) were seeded in confocal dishes and cultured overnight. After being treated with 9e (20 nM) for 24 h, cells were fixed with 4% paraformaldehyde (Servicebio, Wuhan, China) for 15 min at room temperature. Then, they were washed three times with PBS. Next, cells were blocked with a solution containing 3% BSA (Biofroxx, Einhausen, Germany) and 0.3% Triton X-100 (Beyotime, Shanghai, China) for 1 h at room temperature. The cells were incubated with the primary antibody, which was diluted in 3% BSA and 0.3% Triton X-100, overnight at 4 °C. After three washes with PBS, the cells were incubated with the fluorescent secondary antibody (Alexa Fluor 488 and Alexa Fluor 594, Bioss, Beijing, China) for 1 h at room temperature. Following another three washes with PBS, the cellular DNA was stained with Hoechst 33,342 dye (10 min, 37 °C).

[4] = system: human normal mammary epithelial cell lines MCF-10A; assay: Cytotoxicity in normal mammary epithelial cells (MTT); type: cell-based; details: normal mammary epithelial cell line
Excerpt: The MDA-MB-468 cell line was procured from the Cell Bank of the Chinese Academy of Sciences. The MCF-7, MCF-7/ADR, MCF-10A, and MDA-MB-231 cell lines were kindly provided by Professor Xianyi Sha (Fudan University, Shanghai, China). The HUVEC cells were kindly provided by Associate Professor Hulie Zeng (Fudan University, Shanghai, China). The MDA-MB-468, MDA-MB-231, MCF-7, MCF-10A, and HUVEC cells were cultivated in DMEM (Service Biotechnology, China) supplemented with 10% FBS (Capricorn Scientific, Germany) and 1% penicillin-streptomycin (Meilunbio, Dalian, China). For the MCF-7/ADR cells, they were cultured in RPMI-1640 (Service Biotechnology, Wuhan, China), containing 10% FBS and 1% penicillin-streptomycin. […]
Following harvest during logarithmic growth, cells were plated in 96-well culture plates at an initial density of 5000 cells per well. […] The OD value at 570nm was measured using a microplate reader (Thermo Fisher, Waltham, MA, USA). Cell proliferation inhibition was determined using the following formula:Inhibition (%) = [(ODDMSO − ODcompd.)/(ODDMSO − ODblank)] × 100
GraphPad Prism software 9 was used to calculate the IC50 values. […] For instance, in the cell experiment, we recorded the cell viability values at different drug concentrations. […]

`COc1ccc(CCC(=O)c2ccc(OCCOc3no[n+]([O-])c3S(=O)(=O)c3ccccc3)cc2OC)cc1` [Compound 9e, 4-(2-(3-methoxy-4-(3-(4-methoxyphenyl)propanoyl)phenoxy)ethoxy)-3-(phenylsulfonyl)-1,2,5-oxadiazole 2-oxide] was tested, and the Lyso-NO probe signal ([1]; 10 nM 9e, vs vehicle) was “significant rise”, the Mito-NO probe signal ([1]; 9e, vs control) was “no difference” and the “Rh-123 accumulation (in words)” value [2] was “accumulated significantly”. For the same compound, the “fluorescence intensity of LC3” value [3] was “significantly increased” and the IC50 [4] was 13.2 µM.
